What was measured:
[1] = system: panel of NB cell lines; format: cell-based, human; details: up to 50 µM; data not shown
Protocol: The human NB cell lines, SK-N-DZ, SK-N-BE(2)c, SK-N-AS, SK-N-SH, and SK-N-FI were obtained from the American Type Culture Collection (Rockville, MD). Cells were maintained in DMEM with 10% fetal bovine serum (FBS), 100 units/ml penicillin, and 100 µg/ml streptomycin in the presence of 5% CO2 at 37°C. Human PBMCs from a healthy donor were purchased from Sanguine BioSciences (Valencia, CA) and grown in RPMI1640 with10% FBS, 100 units/ml penicillin, 100 µg/ml streptomycin, and 10 ng/ml IL-2 in the presence of 5% CO2 at 37°C. Human embryonic progenitor cell line 7SM0032 was acquired from Millipore (Billerica, MA) and grown in the hEPM-1 Media Kit purchased from the same company.
To measure cell growth, cells were seeded at 3×10^4/ml. After being allowed to attach overnight, cells were treated with various concentrations of the peptides for 72 h. Cell growth was measured by the CellTitor-Glo assay (Promega, Madison, WI) according to manufacturer's instruction. To measure apoptosis, cells were seeded at 1×10^5/ml onto a chamber slide. Once attached, cells were treated with the peptides for 48 h. Cells were fixed and analyzed by a TUNEL assay using the TMR red in situ cell death detection kit (Roche Diagnostics, Indianapolis, IN).

[2] = system: PCNA and FEN1 co-localization in SK-N-AS NB cells; test: PCNA/FEN1 co-localization, immunofluorescence; format: cell-based, human; details: synchronized, 30 µM peptide 6 h after mimosine release
Protocol: (§1) Cells were seeded at 1×10^5/ml onto a chamber slide and were allowed to attach overnight. To analyze the interaction of PCNA with FEN1, LIGI, or Pol ä, we first synchronize cells at the G1/S boundary. The synchronization is achieved by starving cells in medium containing 0.25% FBS for 24 h. Cells were further cultured in the complete medium containing 400 µM of mimosine for 24 h. To release cells into S phase, cells were washed and incubated in mimosine-free medium containing 30 µM R9-caPep or R9-srbPep for 6 h. We pre-determined that the majority of cells were in the S-phase 6 h after mimosine was removed (data not shown). Cells were fixed in ice-cold methanol:acetone (50%:50%) for 10 min or in 4% paraformaldehyde for 20 min at room temperature. Cells were incubated with a goat polyclonal anti-PCNA antibody (Santa Cruz) and a mouse monoclonal anti-FEN1 antibody (Santa Cruz), a mouse anti-POLD3 antibody (Sigma, St. Louis, MO), or a mouse anti-LIGI antibody (Abcam, Cambridge, MA) for 1 h at room temperature. After being washed with PBS, cells were incubated with Alexa Fluor 488 conjugated anti-mouse IgG and Alexa Fluor 555 conjugated anti-goat IgG antibodies (Invitrogen, Grand Island, NY) for 1 h. Cells were mounted in Vectashield with DAPI (Vector Labs, Burlingame, CA) and visualized by a confocal microscope.

[3] = system: PCNA and LIGI co-localization in SK-N-AS NB cells; test: PCNA/LIGI co-localization, immunofluorescence; format: cell-based, human; details: synchronized, 30 µM peptide 6 h after mimosine release
Protocol: as §1

[4] = system: synchronized cells; test: Cell cycle analysis of synchronized cells within 6 h (data not shown); format: cell-based; details: 6 h after mimosine release
Protocol: Cells were seeded at 1×10^5/ml. Once attached, cells were treated with or without R9-caPep for 48 hours. Cells were fixed in 60% ethanol and stained with propidium iodide (PI). The cellular PI fluorescence intensity was determined by flow cytometry. The flow cytometry data were analyzed by the FlowJo program to model various cell populations.
as §1, with “After being washed with PBS, cells were incubated with Alexa Fluor 488 conjugated anti-mouse IgG and Alexa Fluor 555 conjugated anti-goat IgG antibodies (Invitrogen, Grand Island, NY) for 1 h. Cells were mounted in Vectashield with DAPI (Vector Labs, Burlingame, CA) and visualized by a confocal microscope.” left out

[5] = system: ãH2A.X level; test: γH2A.X western blot after γ-irradiation; format: cell-based; details: 30 µM peptide, 2 h pretreatment, 5 Gy
Protocol: (§2) To study DNA damage and repair, attached cells were pretreated with the peptides for 2 h and were then ã-irradiated (5 Gy). After irradiation, cells were cultured in the presence of the peptides for the indicated time. For analyzing ãH2A.X foci formation, cells were fixed in a solution of methanol and acetone (70%:30% v/v) for 15 min at −20°C. The slides were air-dried for storage and rehydrated in PBS prior to immunostaining. Cells were stained by a mouse monoclonal antibody specific to ãH2A.X (Millipore, Billerica, MA) followed by an Alexa Fluor 488 conjugated anti-mouse IgG antibody. For analyzing Rad51 foci formation, cells were fixed in PBS buffered 4% paraformaldehyde at room temperature for 15 min. After being washed twice by PBS, cells were permeabilized in PBS containing 0.5% triton for 15 min on ice. The fixed and permeabilized cells were stained with a rabbit polyclonal antibody raised against the human Rad51 (Santa Cruz) followed by an Alexa Fluor 488 conjugated anti-rabbit IgG antibody. Stained cells were visualized and imaged by a confocal microscope.
Cell extracts were prepared by dissolving cell pellets directly into the Laemmli sample buffer and resolved in a 4–12% SDS polyacrylamide gel. Resolved proteins were blotted onto a nitrocellulose membrane. The membrane was blocked with 5% nonfat dry milk and incubated with an antibody specific to ãH2A.X (Millipore), total H2A.X (Cell Signaling Technology, Danvers, MA), MYCN (Cell Signaling Technology), or actin (Sigma) in the blocking buffer. After incubation with peroxidase-conjugated secondary antibodies, the protein of interest was detected using an ECL kit purchased from GE Healthcare.

[6] = system: Rad51 foci in SK-N-BE(2)c cells; test: Rad51 foci immunofluorescence after γ-irradiation; format: cell-based, human; details: 2 h peptide pretreatment, 5 Gy; 48 h after irradiation
Protocol: as §2

[7] = biological target: T1, interaction between PCNA and the PIP-box sequence of FEN1 (Homo sapiens, UniProt P39748); test: SPR (Biacore) PCNA binding to immobilized FEN1 PIP-box in presence of caPep
T1 construct: Recombinant PCNA (rPCNA), purchased from Surmodics, Inc. (Edina, MN); FEN1 peptide containing the PIP-box (SKSRQGSTQGRLDDFF); purchased Surmodics, Inc. (Edina, MN)
Protocol: All experiments were conducted on the Biacore T100 (GE Healthcare Life Sciences, Piscataway, NJ) in the running buffer HBS-EP+ (10 mM HEPES pH 7.4, 0.15 M NaCl, 3 mM EDTA, 0.05% v/v Surfactant P20). FEN1 peptide containing the PIP-box (SKSRQGSTQGRLDDFF) was immobilized on a carboxymethylated dextran modified CM5 chip using carbodiimide covalent linkage procedures outlined by the manufacturer (GE Healthcare Life Sciences). Recombinant PCNA (rPCNA), purchased from Surmodics, Inc. (Edina, MN), were serially diluted in the HBS-EP+ buffer and flowed over the FEN1-coated sensor chip in the presence of 0, 500, or 1000 nM of caPep at a 5 ìl/min flow rate with a contact time of 3 minutes, followed by dissociation under the same buffer condition and regeneration of the chip surface in 10 mM glycine-HCl (pH 2.0). Binding curves were recorded for rPCNA concentrations ranging from 250 to 1000 nM in the presence of 0, 500, or 1000 nM of caPep. Kinetic parameters from Biacore binding data were determined using Biacore T100 Evaluation Software Version 2.0.3.

[8] = system: SK-N-BE(2)c cells; test: Clonogenic assay; format: cell-based, human; details: R9-caPep alone 20 µM 3 weeks, or cisplatin alone 1 µM 2 h, 3 dishes averaged
Protocol: Three hundred fifty SK-N-BE(2)c cells were seeded onto a 60-mm tissue culture dish. Once attached overnight, cells were treated with or without cisplatin for 2 h. Cells were washed twice with growth medium and were cultured in fresh medium with or without R9-caPep for 3 weeks to allow colony formation. The medium was changed every 3 d. The colonies formed under each treatment conditions were counted after being stained with 0.5% crystal violet.

Q: With “RDRDRDRDRDRDRDRDRDCCEPGLIYEQ [R9-srbPep, R9-CC fused to the same residues as PCNA L126-Y133 in scrambled order; control]” as the molecule, how does the “effect on cell growth” value [1] read?
A: The value was “did not significantly affect cell growth up to 50 µM”.

Q: And the “FEN1 co-localization with PCNA foci” value [2]?
A: Its value is “PCNA co-localized with FEN1 and LIGI at discrete foci”.

Q: What about the “LIGI co-localization with PCNA foci” value [3] of the same molecule?
A: Its value is “PCNA co-localized with FEN1 and LIGI at discrete foci”.

Q: And the “cell cycle progress within 6 h” value [4]?
A: Its value is “neither peptide significantly affected cell cycle progress within 6 h”.

Q: And the “ãH2A.X level within 30 min after irradiation” value [5]?
A: Its value is “increased within 30 min following ã-irradiation in cells treated with either peptide”.

Q: What about the “ãH2A.X level 48 h after irradiation” value ([5]; 48 h) of the same molecule?
A: The value was “went down to a basal level by 48 h”.

Q: What about the “Rad51 foci at 48 h” value [6] of the same molecule?
A: The value was “almost completely resolve the Rad51 foci”.

Q: Which results are given for “caPep: eight amino acid peptide corresponding to the L126-Y133 sequence of human PCNA (LGIPEQEY)”?
A: affinity of PCNA-FEN1 PIP-box interaction ([7]; 0, 500 or 1000 nM caPep): decrease the affinity of PCNA-FEN1 PIP-box interaction in a dose-dependent manner; rPCNA interaction with immobilized FEN1 PIP-box sequence (SPR response) ([7]; 1000 nM rPCNA, 0, 500 or 1000 nM caPep): significantly reduced rPCNA interaction with the immobilized FEN1 PIP-box sequence

Q: With N.N.[Cl][Pt][Cl] [cisplatin, reference compound] as the molecule, how does the “reduction of number of colonies, single agent” value [8] read?
A: Its value is “less than 30%”.
